Reference: US10905121B2, “Method for controlling PPO resistant weeds” (BASF SE, priority 2016, dated 2021)

Columns and labels:
[1] = system: Amaranthus tamariscinus (AMATA, common waterhemp), PPO resistant biotype 4 confirmed to contain the ΔG210 mutation (w.5); test: greenhouse herbicidal activity test, weed w.5; assay type: in vivo; details: PPO resistant biotype 4 (ΔG210), scale 0 to 100
Text: (§1) The culture containers used were plastic flowerpots containing loamy sand with approximately 3.0% of humus as the substrate. The seeds of the test plants were sown separately for each species and/or resistant biotype. For the pre-emergence treatment, the active ingredients, which had been suspended or emulsified in water, were applied directly after sowing by means of finely distributing nozzles. The containers were irrigated gently to promote germination and growth and subsequently covered with transparent plastic hoods until the plants had rooted. This cover caused uniform germination of the test plants, unless this had been impaired by the active ingredients. For the post-emergence treatment, the test plants were first grown to a height of 3 to 15 cm, depending on the plant habit, and only then treated with the active ingredients which had been suspended or emulsified in water. For this purpose, the test plants were either sown directly and grown in the same containers, or they were first grown separately as seedlings and transplanted into the test containers a few days prior to treatment. Depending on the species, the plants were kept at 10-25° C. or 20-35° C., respectively. The test period extended over 2 to 4 weeks. During this time, the plants were tended, and their response to the individual treatments was evaluated. The evaluation was carried out by using a scale from 0 to 100. […]

[2] = system: Amaranthus tamariscinus (AMATA, common waterhemp), PPO resistant biotype 2 (w.3); test: greenhouse herbicidal activity test, weed w.3; assay type: in vivo; details: scale 0 to 100
Text: as §1

[3] = system: Amaranthus tamariscinus (AMATA, common waterhemp), PPO resistant biotype 1 (w.2); test: greenhouse herbicidal activity test, weed w.2; assay type: in vivo; details: scale 0 to 100
Text: as §1

[4] = system: sensitive (w.1) and resistant weeds (w.2 to w.5); test: greenhouse herbicidal activity test, summary over all biotypes; assay type: in vivo, Amaranthus tamariscinus; details: w.1 to w.5, including those shown to contain the ΔG210 mutation
Text: as §1

[5] = system: Amaranthus tamariscinus (AMATA, common waterhemp), Sensitive biotype (w.1); test: greenhouse herbicidal activity test, weed w.1; assay type: in vivo; details: scale 0 (no damage) to 100 (complete destruction)
Text: as §1

[6] = system: Amaranthus tamariscinus (AMATA, common waterhemp), PPO resistant biotype 3 confirmed to contain the ΔG210 mutation (w.4); test: greenhouse herbicidal activity test, weed w.4; assay type: in vivo; details: PPO resistant biotype 3 (ΔG210), scale 0 to 100
Text: as §1

With `C=CCOC(=O)C(C)(C)OC(=O)c1cc(-n2c(=O)cc(C(F)(F)F)n(C)c2=O)ccc1Cl` [(I).1, butafenacil] as the compound, how does the “Weed control (%) w.5” value ([1]; use rate 4 g/ha) read?
Its value is 80%.

What about the “Weed control (%) w.5” value ([1]; use rate 8 g/ha) of the same compound?
Its value is 83%.

And the “Weed control (%) w.3” value ([2]; use rate 4 g/ha)?
Its value is 100%.

What about the “Weed control (%) w.3” value ([2]; use rate 8 g/ha) of the same compound?
Its value is 100%.

And the “Weed control (%) w.2” value ([3]; use rate 4 g/ha)?
Its value is 100%.

What about the “Weed control (%) w.2” value ([3]; use rate 8 g/ha) of the same compound?
The value was 100%.

And the “activity on sensitive and resistant weeds (in words)” value [4]?
Its value is “very good activity”.

What about the “Weed control (%) w.1” value ([5]; use rate 4 g/ha) of the same compound?
The value was 100%.

And the “Weed control (%) w.1” value ([5]; use rate 8 g/ha)?
Its value is 100%.

What about the “Weed control (%) w.4” value ([6]; use rate 4 g/ha) of the same compound?
The value was 80%.

And the “Weed control (%) w.4” value ([6]; use rate 8 g/ha)?
Its value is 85%.
